From the NIST ThermoML archive (doi:10.1016/j.fluid.2013.10.012)
± gives the expanded uncertainty stated by the source.

Legend:
[1] = refractive index (Na D-line) (dimensionless); details: 298.15 K; 101.33 kPa; Liquid; Standard Abbe refractometry
[2] = Liquid; for mass density: 298.15 K, 101.33 kPa, Vibrating tube method; for vapor or sublimation pressure: Ebulliometric method (Recirculating still)

vapor or sublimation pressure ([2]; 393.4 K) [kPa]	SMILES	refractive index [1]	mass density [2] [kg/m3]	vapor or sublimation pressure ([2]; 342.8 K) [kPa]	vapor or sublimation pressure ([2]; 347.2 K) [kPa]	vapor or sublimation pressure ([2]; 342 K) [kPa]
	Cc1cccc(C)c1 [1,3-dimethylbenzene]	1.4946 ± 0.0007	859.95 ± 1	10 ± 0.15		
	Cc1ccccc1C [1,2-dimethylbenzene]	1.5031 ± 0.0007	875.5 ± 1		10 ± 0.15	
10 ± 0.15	CCCCCCCCCCC [undecane]	1.4152 ± 0.0007	736.85 ± 1			
	Cc1ccc(C)cc1 [1,4-dimethylbenzene]	1.4931 ± 0.0007	856.71 ± 1			10 ± 0.15
